Measurements taken from patent US20220017468A1, “ISOQUINOLINE COMPOUNDS AND THEIR USE IN TREATING AhR IMBALANCE” (Dermavant Sciences GmbH, priority 2020, published 2022).
“And” between values parts separate entries of the source, which are not always exact repeats. Equal values may be shown once. Read-outs that look alike come from different tables or passages of the source.

Legend:
[1] = metabolic stability in hepatocytes, human; type: in vitro ADME
[2] = metabolic stability in hepatocytes, mouse; type: in vitro ADME
[3] = skin binding in human skin homogenate; type: in vitro ADME; settings: 25, 50 and 100 ng/mL
[4] = oxygen radical absorbance capacity (ORAC) test; type: biochemical; settings: Trolox Equivalent Values
[5] = blood-to-plasma ratio and blood cell association, rat; type: in vitro ADME
[6] = metabolic stability in hepatocytes, rabbit; type: in vitro ADME
CB2 = target: T1, CB2 (Homo sapiens, UniProt P34972); test: fluorescence-based agonist assay using genetically modified yeast; type: cell-based; settings: read-out: CB2 pEC50 (converted)
T1 construct: expressed in transfected cells

[7] = tested on: human peripheral blood CD4+ T-cells; test: T cell viability; type: cell-based; settings: 120 h, Th17 polarizing conditions, 5 days
From the text: Points represent percent maximum expression of protein compared to Th17 from six combined donors; 3 biological replicates per treatment. Error bars represent standard error of mean. […] Data are mean±standard error from 3 to 9 experimental data points. […] Error bars represent mean ±standard error of 10-15 biological replicates.

[8] = metabolic stability in liver microsomes, mouse; type: in vitro ADME
[9] = estimation of human plasma concentration following topical administration; settings: for Estimated AUC24 h / Estimated Css: 70 kg
Protocol: The plasma clearance (CLhuman) was estimated from the in vitro and preclinical pharmacokinetic studies.
An estimated skin flux prediction was conducted, assuming a 2-hour lag time and receiving fluid levels obtained every two hours at the LLOQ level for 16 hours, leading to a calculated flux of 0.048 ng/cm^2/h.
Healthy skin is an effective protective barrier to most xenobiotics; therefore the relevance of a flux value derived from the ex vivo skin penetration assay, which uses healthy human skin from abdominoplasty surgeries, may not translate to what is observed following application onto unhealthy skin. […] Calculation of human systemic exposure with a 100-fold increase in flux has also been performed to account for the worst case estimation. A 10% body surface area (1800 cm^2) in human was used for this estimation. Therefore, for the purpose of safety margin estimation and considering the conditions explained herein, the estimated Css,human is 0.34 ng/mL with the corresponding AUCss, 24 h is 8.2 ng*h/mL. In clinical practice, topical treatment for atopical dermatitis can be up to 50% BSA (9000 cm2) and therefore corresponding estimated Css,human and AUCss, 24 h with 10-fold increase in flux is 0.17 ng/mL and 4.1 ng*h/mL.

[10] = metabolic stability in hepatocytes, minipig; type: in vitro ADME
Rat Plasma Proteins = test: plasma protein binding by Rapid Equilibrium Dialysis, rat; type: in vitro ADME
From the text: (§1) The blood-to-plasma ratios were similar across species (1.22-1.36, Table 9).

[11] = as above; type: in vitro ADME; settings: rat, plasma
From the text: as §1

[12] = plasma protein binding by Rapid Equilibrium Dialysis, human; type: in vitro ADME; settings: human, plasma
From the text: as §1

Human Plasma Proteins = test: as above; type: in vitro ADME
From the text: as §1

[13] = metabolic stability in liver microsomes, rabbit; type: in vitro ADME
[14] = metabolic stability in liver microsomes, dog; type: in vitro ADME
[15] = flux 0.48 (10-fold increase), dose area 9000 cm^2, clearance 6 ml/min/kg
[16] = flux 4.8 (100-fold increase), dose area 1800 cm^2, clearance 6 ml/min/kg
[17] = read-out: % Unbound Mean (% CV)
[18] = read-out: Mean % Bound (converted)

T1 sequence (P34972 whole entry, species assumed): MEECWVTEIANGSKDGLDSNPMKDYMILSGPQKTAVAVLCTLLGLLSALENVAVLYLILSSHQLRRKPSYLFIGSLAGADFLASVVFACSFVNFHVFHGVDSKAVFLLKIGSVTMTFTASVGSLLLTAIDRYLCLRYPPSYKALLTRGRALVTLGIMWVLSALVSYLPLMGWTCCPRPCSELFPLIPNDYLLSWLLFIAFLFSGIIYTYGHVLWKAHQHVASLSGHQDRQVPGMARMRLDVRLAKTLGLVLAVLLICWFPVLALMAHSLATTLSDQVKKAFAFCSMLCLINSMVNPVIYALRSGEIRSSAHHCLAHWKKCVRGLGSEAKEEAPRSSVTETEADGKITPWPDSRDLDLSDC

## CC(C)c1c(O)cc(-c2cc3ccccc3cn2)cc1O
[1]
  half-life at 0.5 μM: 10.4 min
[1]; 0.5 μM
  CLint, hep: 15.7 mL/min/g liver
[1]; read-out: Scaled CLint, hep
  CLint scaled at 0.5 μM: 384 mL/min/kg
[2]
  half-life at 0.5 μM: 8.39 min
[2]; 0.5 μM
  CLint, hep: 22.3 mL/min/g liver
[2]; read-out: Scaled CLint, hep
  CLint scaled at 0.5 μM: 1140 mL/min/kg
[3]; human dermis homogenate
  fraction unbound: 0.341 ± 0.115
[3]; human epidermis homogenate
  fraction unbound: 0.513 ± 0.011
[3]; whole human skin homogenate
  fraction unbound: 0.219 ± 0.0072
[4]
  Hydroxyl-radical: 759 TEV
  Peroxyl radical-hydro: 3267 TEV
  Peroxyl radical-lipo: 1397 TEV
  Peroxynitrite: 100 TEV
  Singlet oxygen: 2914 TEV
  Total ORAC value: 8437 TEV
[5]; 1 μM
  % Blood Cell Association Mean (% CV): 60.2 (4.37) %
  % Blood Cell Association Replicate: 58.9% and 58.3% and 63.1%
  Blood-to-plasma Ratio Replicate: 1.29 and 1.46
  Mean % Blood Stability: 104%
[5]; read-out: Blood-to-plasma Ratio Mean (% CV)
  blood plasma ratio at 1 μM: 1.36
[5]; read-out: Blood-to-plasma Ratio Replicate
  blood plasma ratio at 1 μM: 1.31
[6]
  half-life at 0.5 μM: 21.3 min
[6]; 0.5 μM
  CLint, hep: 7.80 mL/min/g liver
[6]; read-out: Scaled CLint, hep
  CLint scaled at 0.5 μM: 240 mL/min/kg
CB2
  EC50: 0.2 µM
[7]
  IC50: 5.9 µM
[8]; mouse liver microsomes, 0.5 μM
  CLint, mic: 23.4 mL/min/g liver
[8]; mouse liver microsomes, 0.5 μM, read-out: Scaled CLint, mic
  CLint scaled at 0.5 μM: 1190 mL/min/kg
[8]; mouse, microsomes
  half-life at 0.5 μM: 2.84 min
[9]; allometric scaling with plasma protein binding correction
  lowest predicted human clearance: 6 mL/min/kg
[9]; assuming 2-hour lag time and receiving fluid levels at the LLOQ for 16 hours
  Topical Skin Flux (calculated): 0.048 ng/cm^2/h
[9]; [15]
  Estimated AUC24 h: 4.1 ng·h/mL
  Estimated Css: 0.17 ng/mL
[9]; [16]
  Estimated AUC24 h: 8.2 ng·h/mL
  Estimated Css: 0.34 ng/mL
[10]; minipig
  in vitro-to-in vivo extrapolation (IVIVE) ratio: 0.27
[10]; minipig hepatocytes, 0.5 μM
  CLint, hep: 6.27 mL/min/g liver
  half-life at 0.5 μM: 26.5 min
[10]; minipig hepatocytes, 0.5 μM, read-out: Scaled CLint, hep
  CLint scaled at 0.5 μM: 105 mL/min/kg
Rat Plasma Proteins
  recovery at 4 h, 2 μM: 104%
Rat Plasma Proteins; 2 μM
  % Unbound Replicate: 1.37% and 1.44% and 6.36%
  Mean % Stability at 4 hrs: 94.4%
[11]; [17]
  fraction unbound at 4 h, 2 μM: 0.0306
[11]; [18]
  fraction unbound at 4 h, 2 μM: 0.031
[12]; [17]
  fraction unbound at 2 μM: 0.0108
[12]; read-out: % Unbound Replicate
  fraction unbound at 2 μM: 0.0106
[12]; [18]
  fraction unbound at 2 μM: 0.011
Human Plasma Proteins
  recovery at 2 μM: 102%
Human Plasma Proteins; 2 μM
  % Unbound Replicate: 1.05% and 1.13%
  Mean % Stability at 4 hrs: 101%
[13]; rabbit liver microsomes, 0.5 μM
  CLint, mic: 11.9 mL/min/g liver
[13]; rabbit liver microsomes, 0.5 μM, read-out: Scaled CLint, mic
  CLint scaled at 0.5 μM: 367 mL/min/kg
[13]; rabbit, microsomes
  half-life at 0.5 μM: 6.1 min
[14]; dog liver microsomes, 0.5 μM
  CLint, mic: 1.59 mL/min/g liver
[14]; dog liver microsomes, 0.5 μM, read-out: Scaled CLint, mic
  CLint scaled at 0.5 μM: 51.7 mL/min/kg
[14]; dog, microsomes
  half-life at 0.5 μM: 32.1 min
